From patent US9708275B2, “Heterocyclic compounds and methods for their use” (Novartis AG, priority 2012, dated 2017)
pIC50: −log10 of the molar value.

Target: AT2 receptor (Homo sapiens (Human), UniProt P50052)
Assay: AT2 receptor binding assay ([125I]-CGP42112A, HEK293/AT2 receptor cell membranes)
Details: displacement of [125I]-CGP42112A, RT 1.5 hrs
Description: 1. Trypsin-EDTA (for preparation of 100 mL) • Trypsin 0.25 g • 2% EDTA 2 mL • PBS 98 mL • Dissolve trypsin in 2% EDTA and PBS completely; sterilize the solution by passing through a […] membrane filter; store at 4° C.
2. DMEM medium (for preparation of 1 L) • The powder was dissolved into 950 mL of distilled water with gentle stirring until the solution becomes clear. • Add NaHCO3 1.176 g for DMEM medium. • Adjust pH of medium to 0.2-0.3 below final working pH using 1 M NaOH or 1 M HCl. Add slowly with stirring. • Dilute to 1 liter with ddH2O. • Sterilize the medium immediately by filtration. • Store at 4° C.
3. TE buffer • 20 mM Tris-HCl, pH 7.4, • 5 mM EDTA
4. Binding Assay Buffer • 50 mM Hepes, pH 7.4 • 5 mM MgCl2 • 1 mM CaCl2 • 0.2% BSA
5. Wash Buffer • 50 mM Hepes, pH 7.4 Procedures for HEK293/AT2 Receptor Transient Cell Transfection • Cells were plated into 150 mm dish at 50% density for transient transfection. Cells were ready for transfection after overnight incubation (the confluence reaches around 80%). • 75 μL Lipofectamine™2000 diluted in 6.25 mL OptiMEM I Reduced Serum Medium, was mixed gently, and incubated at room temperature for 5 minutes. 50 μg expression plasmid DNA diluted in 6.25 mL OptiMEM I Reduced Serum Medium without serum was mixed gently. • After the 5 minute incubation, the diluted DNA was combined with the diluted Lipofectamine™2000 (total volume is 12.5 mL). The mixture was mixed gently and incubated for 30 minutes at room temperature to allow the DNA-Lipofectamine™2000 complexes to form. • The 12.5 mL DNA-Lipofectamine™2000 complexes were added into the 150 mm dish and mixed gently by rocking the dish back and forth. • The cells were incubated at 37° C. with 5% CO2 for 48 hours. • Cells were collected and stored frozen at −80° C. Procedures for HEK293/AT2 Receptor Cell Membrane Preparation • Frozen HEK293/AT2 receptor (transient transfected) cells were homogenized in ice cold TE buffer for 10 s. • The homogenate was centrifuged at 25,000 g for 30 minutes. • The pellet was resuspended in ice cold tissue buffer. • Protein concentrations were determined using Bradford assay method with BSA as standard. • The membrane protein was frozen under −80° C. Compound Preparation
Solutions of all compounds were prepared by microplate liquid handling equipment such as Janus or Precision 2000. Compounds, dissolved in DMSO were stored in a Freezer. Compounds were prepared from 30 mM in 100% DMSO.
Step 1: Dose plate preparation (96 well plate)
• Add the 3 μL [30 mM] compound stock to column 1 on the plate. • Add 15 μL of 100% DMSO to column 1. • Add 10.81 μL of 100% DMSO to column 2-12. • Transfer 5 μL from column 1 into column 2 (half log dilution). • Transfer 5 μL from column 2 into column 3 (half log dilution). • Transfer 5 μL from column 3 into column 4 (half log dilution). • Transfer 5 μL from column 4 into column 5 (half log dilution). • Transfer 5 μL from column 5 into column 6 (half log dilution). • Transfer 5 μL from column 6 into column 7 (half log dilution). • Transfer 5 μL from column 7 into column 8 (half log dilution). • Transfer 5 μL from column 8 into column 9 (half log dilution). • Transfer 5 μL from column 9 into column 10 (half log dilution) • Transfer 5 μL from column 10 into column 11 (half log dilution) • Transfer 5 μL from column 11 into column 12 (half log dilution).
All the compounds were diluted using Precision 2000 microplate liquid handling equipment. The top concentration of compound was 5 mM with 100% DMSO.
Step 2: Working plate preparation (96 well plate)
• Compounds were diluted 50-fold with buffer. • 49 μL buffer was added to the well of 96 well plate. • 1 μL compound solution from dose plate was transferred to the corresponding well of working plate. • The top concentration of compound was 100 μM with 2% DMSO. Step 3: Assay plate preparation (96 well plate)
15 μL of compound solution was transferred from each well of working plate to the well of assay plate by Janus. […]

Sequence of AT2 receptor (P50052 whole entry, species assumed): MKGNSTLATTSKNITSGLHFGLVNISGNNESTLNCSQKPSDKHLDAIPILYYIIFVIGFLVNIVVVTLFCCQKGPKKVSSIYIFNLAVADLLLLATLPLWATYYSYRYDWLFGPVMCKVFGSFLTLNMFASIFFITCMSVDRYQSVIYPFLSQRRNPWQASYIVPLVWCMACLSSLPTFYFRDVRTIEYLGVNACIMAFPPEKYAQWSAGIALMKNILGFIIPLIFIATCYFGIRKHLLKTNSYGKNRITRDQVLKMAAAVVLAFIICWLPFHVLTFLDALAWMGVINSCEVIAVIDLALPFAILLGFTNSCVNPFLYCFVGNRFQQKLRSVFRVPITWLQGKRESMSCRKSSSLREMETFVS

`O=C(O)[C@@H]1CN(c2ccccc2)CCN1C(=O)C(c1ccccc1)c1ccccc1` [Compound 4, (S)-1-(2,2-diphenylacetyl)-4-phenylpiperazine-2-carboxylic acid] and `O=C(O)[C@@H]1CN(Cc2ccccc2)CCN1C(=O)C(c1ccccc1)c1ccccc1` [Compound 5, (S)-4-benzyl-1-(2,2-diphenylacetyl)piperazine-2-carboxylic acid] are within 0.2 log units of each other in pIC50: 6.39 for the first, 6.42 for the second.

Going from `O=C(O)[C@@H]1CN(c2cc(-c3ccccc3)n(-c3ccccc3)n2)CCN1C(=O)C(c1ccccc1)c1ccccc1` [Compound 6, (S)-4-(1,5-diphenyl-1H-pyrazol-3-yl)-1-(2,2-diphenylacetyl)-piperazine-2-carboxylic acid] to `Cc1cc(N2CCN(C(=O)C(c3ccccc3)c3ccccc3)[C@H](C(=O)O)C2)n(-c2ccccc2)n1` [Compound 7, (3)-1-(2,2-diphenylacetyl)-4-(3-methyl-1-phenyl-1H-pyrazol-5-yl)piperazine-2-carboxylic acid], the pIC50 rises from 5.52 to 6.81 (1.29 log units). The second is the more potent here.

Compared with `O=C(O)[C@@H]1CN(CCc2ccccc2)CCN1C(=O)C(c1ccccc1)c1ccccc1` [Compound 8, (S)-1-(2,2-diphenylacetyl)-4-phenethylpiperazine-2-carboxylic acid], `O=C(O)[C@@H]1CN(CCCc2ccccc2)CCN1C(=O)C(c1ccccc1)c1ccccc1` [Compound 10, (S)-1-(2,2-diphenylacetyl)-4-(3-phenylpropyl)piperazine-2-carboxylic acid] is 0.39 log units higher in pIC50: 5.90 for the first, 6.29 for the second.

`O=C(O)[C@@H]1CN(C/C=C/c2ccccc2)CCN1C(=O)C(c1ccccc1)c1ccccc1` [Compound 9, (S)-4-cinnamyl-1-(2,2-diphenylacetyl)piperazine-2-carboxylic acid] and `O=C(O)[C@@H]1CN(CC#Cc2ccccc2)CCN1C(=O)C(c1ccccc1)c1ccccc1` [Compound 24, (S)-1-(2,2-diphenylacetyl)-4-(3-phenylprop-2-yn-1-yl)piperazine-2-carboxylic acid] are within 0.2 log units of each other in pIC50: 5.39 for the first, 5.38 for the second.

Going from `Cc1cc(N2CCN(C(=O)C(c3ccccc3)c3ccccc3)[C@H](C(=O)O)C2)n(Cc2ccccc2)n1` [Compound 16, (S)-4-(1-benzyl-3-methyl-1H-pyrazol-5-yl)-1-(2,2-diphenylacetyl)piperazine-2-carboxylic acid] to `O=C(O)[C@@H]1CN(c2cc(C(F)(F)F)nn2Cc2ccccc2)CCN1C(=O)C(c1ccccc1)c1ccccc1` [Compound 23, (S)-4-(1-benzyl-3-(-trifluoromethyl)-1H-pyrazol-5-yl)-1-(2,2-diphenylacetyl)piperazine-2-carboxylic acid], the pIC50 falls from 7.40 to 7.03 (0.37 log units). The first is the more potent here.

For `O=C(O)[C@@H]1CN(CCC#Cc2ccccc2)CCN1C(=O)C(c1ccccc1)c1ccccc1` [Compound 26, (S)-1-(2,2-diphenylacetyl)-4-(4-phenylbut-3-yn-1-yl)piperazine-2-carboxylic acid], the pIC50 was 5.88.
